Source: publication PMC10855388, “Small-Molecule-Directed Endogenous Regeneration of Visual Function in a Mammalian Retinal Degeneration Model” (International Journal of Molecular Sciences, 2024)

Legend:
Assay in all cases: KinaseProfiler in vitro kinase panel ([…] human kinases), single concentration […]
Format in all cases: biochemical
PKG1α = target: T1, PKG1α (Homo sapiens, UniProt Q13976)
T1 construct: gene PRKG1
T1 sequence (Q13976 2-671): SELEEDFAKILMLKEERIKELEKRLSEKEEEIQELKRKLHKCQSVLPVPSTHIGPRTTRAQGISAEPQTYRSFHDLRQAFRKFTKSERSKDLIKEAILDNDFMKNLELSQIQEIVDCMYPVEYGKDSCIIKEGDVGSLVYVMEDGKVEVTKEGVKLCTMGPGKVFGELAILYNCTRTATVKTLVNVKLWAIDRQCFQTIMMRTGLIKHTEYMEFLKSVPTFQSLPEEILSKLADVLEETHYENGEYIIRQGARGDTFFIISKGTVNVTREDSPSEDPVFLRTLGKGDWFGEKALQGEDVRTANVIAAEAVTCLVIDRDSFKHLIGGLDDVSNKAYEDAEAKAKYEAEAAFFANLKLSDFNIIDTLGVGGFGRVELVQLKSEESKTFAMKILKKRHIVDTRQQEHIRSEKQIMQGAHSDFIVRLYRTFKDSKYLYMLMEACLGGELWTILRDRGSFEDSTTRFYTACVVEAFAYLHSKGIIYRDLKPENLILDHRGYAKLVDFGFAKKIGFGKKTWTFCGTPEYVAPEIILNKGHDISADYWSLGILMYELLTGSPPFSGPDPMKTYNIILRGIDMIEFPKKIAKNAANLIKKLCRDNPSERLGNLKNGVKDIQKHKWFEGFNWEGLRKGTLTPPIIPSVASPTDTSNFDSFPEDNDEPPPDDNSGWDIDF

p70S6K = target: T2, p70S6K (Homo sapiens, UniProt P23443)
T2 construct: gene RPS6KB1

ROCK-I = target: T3, ROCK-I (Homo sapiens, UniProt Q13464)
T3 construct: gene ROCK1

PKA = target: T4, PKA (Homo sapiens, UniProt P17612)
T4 construct: gene PRKACA

T2 sequence (P23443 whole entry): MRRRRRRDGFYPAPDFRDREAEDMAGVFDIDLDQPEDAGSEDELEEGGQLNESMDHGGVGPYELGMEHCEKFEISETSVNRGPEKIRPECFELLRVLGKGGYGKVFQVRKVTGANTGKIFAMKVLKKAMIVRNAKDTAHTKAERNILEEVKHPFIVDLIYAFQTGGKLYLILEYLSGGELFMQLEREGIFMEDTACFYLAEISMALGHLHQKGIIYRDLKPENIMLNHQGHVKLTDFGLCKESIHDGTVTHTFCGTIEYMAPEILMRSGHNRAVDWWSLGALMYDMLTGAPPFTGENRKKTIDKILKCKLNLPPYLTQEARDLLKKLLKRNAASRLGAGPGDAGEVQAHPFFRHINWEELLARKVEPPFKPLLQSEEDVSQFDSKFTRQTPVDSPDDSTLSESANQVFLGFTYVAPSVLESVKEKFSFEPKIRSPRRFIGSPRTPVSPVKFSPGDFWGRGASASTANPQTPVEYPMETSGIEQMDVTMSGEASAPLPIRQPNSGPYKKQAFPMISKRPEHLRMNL
T3 sequence (Q13464 2-1354): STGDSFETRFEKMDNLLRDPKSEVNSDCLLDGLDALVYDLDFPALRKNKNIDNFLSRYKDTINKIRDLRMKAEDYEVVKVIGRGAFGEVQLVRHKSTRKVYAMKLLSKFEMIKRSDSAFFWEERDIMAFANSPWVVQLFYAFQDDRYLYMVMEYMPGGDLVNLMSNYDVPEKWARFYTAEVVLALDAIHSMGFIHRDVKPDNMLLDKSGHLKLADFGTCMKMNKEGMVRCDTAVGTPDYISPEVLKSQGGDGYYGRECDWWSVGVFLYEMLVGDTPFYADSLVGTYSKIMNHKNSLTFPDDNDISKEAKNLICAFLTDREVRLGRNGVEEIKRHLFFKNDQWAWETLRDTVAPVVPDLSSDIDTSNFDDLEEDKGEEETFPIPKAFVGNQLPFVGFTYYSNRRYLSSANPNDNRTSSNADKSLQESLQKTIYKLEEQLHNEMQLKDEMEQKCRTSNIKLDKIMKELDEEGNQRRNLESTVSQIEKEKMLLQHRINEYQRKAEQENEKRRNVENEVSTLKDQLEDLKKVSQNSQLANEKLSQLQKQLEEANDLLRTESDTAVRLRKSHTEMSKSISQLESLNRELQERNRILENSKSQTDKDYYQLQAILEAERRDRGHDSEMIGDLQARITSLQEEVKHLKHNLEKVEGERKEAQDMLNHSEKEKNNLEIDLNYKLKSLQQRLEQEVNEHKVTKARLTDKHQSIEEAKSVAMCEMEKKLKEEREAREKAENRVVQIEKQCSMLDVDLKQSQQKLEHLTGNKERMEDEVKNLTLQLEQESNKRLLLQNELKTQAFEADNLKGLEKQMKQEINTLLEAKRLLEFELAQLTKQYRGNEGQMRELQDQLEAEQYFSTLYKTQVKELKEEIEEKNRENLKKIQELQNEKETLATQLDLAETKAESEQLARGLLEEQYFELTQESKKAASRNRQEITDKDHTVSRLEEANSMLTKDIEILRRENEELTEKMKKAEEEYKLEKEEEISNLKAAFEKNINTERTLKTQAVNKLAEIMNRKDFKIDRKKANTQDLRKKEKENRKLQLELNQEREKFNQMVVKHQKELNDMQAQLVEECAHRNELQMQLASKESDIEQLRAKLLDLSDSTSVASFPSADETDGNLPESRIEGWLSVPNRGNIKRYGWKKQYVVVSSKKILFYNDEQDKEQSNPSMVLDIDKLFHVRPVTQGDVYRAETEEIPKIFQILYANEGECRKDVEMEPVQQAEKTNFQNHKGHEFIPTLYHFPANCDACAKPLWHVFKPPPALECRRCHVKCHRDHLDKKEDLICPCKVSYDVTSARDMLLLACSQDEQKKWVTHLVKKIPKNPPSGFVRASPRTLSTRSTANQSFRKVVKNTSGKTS

inhibition at 5 µM (PKG1α): > 75%
inhibition at 5 µM (p70S6K): > 75%
inhibition at 5 µM (ROCK-I): > 75%
inhibition at 5 µM (PKA): > 75%
Structure (SMILES): COc1cc(NC(=O)C2COc3ccccc3C2)ccc1-c1cnco1 (stereo not shown) [CompA, CompoundA]
